The text below walks through data of patent US8283358B2, “N-sulfonamido polycyclic pyrazolyl compounds” (Elan Pharmaceuticals, Inc., priority 2008, dated 2012).

This assay deals with gamma secretase in CHO cells expressing APPSwe, NotchΔE and a Notch responsive luciferase reporter gene (SNC-204B8). Kind of assay: SNC dual cell assay for simultaneous assay of A-beta reduction and Notch signaling (Example D). As to conditions: ratio of Notch IC50/Aβ EC50 determined as described in Example D (SNC dual cell assay).

From the text: In order to facilitate testing the potency of gamma-secretase inhibitors on two substrates (APP and Notch) simultaneously, a dual-assay using a CHO cell line stably expressing APPSwe, a Notch substrate lacking the ecto-domain, and a Notch responsive Luciferase reporter gene was developed. CHOSwe cells stably over-express the Swedish FAD isoform of APP, and secrete large amounts of Aβ peptide into the conditioned media from endogenous β- and γ-secretase enzyme activity. A Notch intracellular domain (NICD) responsive reporter gene, and the constitutive gamma-secretase Notch substrate, NotchΔE, were stably introduced into CHOSwe cells in a two step process. CHOSwe cells were first stably transfected to express a NICD responsive luciferase reporter gene construct (pGL2-CBF-Luc). […] Stable cell lines expressing rat NotchΔE were then identified in the second step by including a gamma-secretase inhibitor in the selection process (to suppress Notch/NICD toxicity) following transfection of the rat Notch-ΔE construct. […] This vector drives expression of a truncated rat Notch construct corresponding to the c-terminal product following ecto-domain shedding of full length rat Notch protein. The c-terminal product is a constitutive substrate for gamma-secretase cleavage, resulting in release of the cytoplasmic Notch intracellular domain (NICD) product, which translocates to the nucleus and relieves CBF repressed genes. Subsequently, pIRES-ZEDN transfected cells were re-plated at low density in the presence of test compound, and selected with three antibiotics (G418 (0.5 mg/ml)/Hygro (1 mg/ml)/Puro (2.5 mg/ml)). The antibiotic-resistant colonies (named SNC clones for the dual-assay components: APPSwe/NotchΔE/CBF) were isolated and expanded for characterization of Aβ secretion, and NICD responsive reporter gene activity (i.e. luciferase signal in the presence versus absence of test compound). […] A typical dual-assay experiment was performed as follows: Day 1, the SNC cells were plated in 96-well assay plates in inhibitor-free media. Day 2, the cells were fed with fresh media (inhibitor free) and treated with test compounds over a concentration range 0 nM to 40,000 nM (in 10× incremental dilutions) one hour after the media change. The cells were treated with compounds overnight at 37° C. […] For the Notch signaling assay, the cells were lysed and luciferase activity from the lysate was measured using the Promega kit (see below). Day 4, Aβ-ELISA part II was conducted using 3D6-biotin/AP-streptavidin antibodies.

With `O=C1c2[nH]ncc2C2c3cccc(F)c3C1N2S(=O)(=O)c1ccc(C(F)(F)F)nc1` (single isomer, unassigned; (-)) [(−)-8-fluoro-11-{[6-(trifluoromethyl)pyridin-3-yl]sulfonyl}-4,9-dihydro-4,9-epiminobenzo[4,5]cyclohepta[1,2-c]pyrazol-10(1H)-one], the “Selectivity Ratio (Notch IC50/Aβ ED50)” value is “(++++) ((++++) means a ratio of Notch IC50/Aβ EC50 (determined as described in Example D) of >200)”.
